From ChEMBL document CHEMBL1201862, “PubChem BioAssay data set” (2004)
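Exposure lasted 48 hours, with cells grown in 96-well plates and compounds tested at five concentrations. GI50 = concentration required for 50% inhibition of growth.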 The source made the active and inactive calls. No stated cut-off is given here; in the data, active = GI50 up to about 1.1 µM and inactive = higher.

Legend:
Assay in all cases: inhibition of tumour cell growth, NCI panel, 48 h
KM12 = system: KM12
HCT-116 = system: HCT-116
LOX IMVI = system: LOX IMVI
SK-MEL-2 = system: SK-MEL-2
IGROV-1 = system: IGROV-1
SK-OV-3 = system: SK-OV-3
SN12C = system: SN12C
OVCAR-3 = system: OVCAR-3
SF-539 = system: SF-539
NCI-H226 = system: NCI-H226
EKVX = system: EKVX
OVCAR-4 = system: OVCAR-4
UACC-62 = system: UACC-62
CAKI-1 = system: CAKI-1
SR = system: SR

Measured: GI50

COc1ccc(C2=C3c4cc(OC)c(OC)cc4CCN3C(=S)SS2)cc1OC
inactive: KM12 66.7 µM | HCT-116 > 100 µM | LOX IMVI 40.8 µM | SK-MEL-2 57 µM | IGROV-1 > 100 µM | SK-OV-3 > 100 µM | SN12C 64.7 µM | OVCAR-3 > 100 µM | SF-539 > 100 µM | NCI-H226 > 100 µM | EKVX > 100 µM | OVCAR-4 48.4 µM | UACC-62 22 µM | CAKI-1 77.6 µM

CN(C)CCn1c2ccccc2c2nc3cc4ccccc4cc3nc21
inactive: KM12 3.74 µM | HCT-116 3.79 µM | LOX IMVI 3.18 µM | SK-MEL-2 11.1 µM | IGROV-1 2.08 µM | SK-OV-3 5.75 µM | SN12C 4.61 µM | OVCAR-3 10.6 µM | NCI-H226 14 µM | EKVX 12.6 µM | OVCAR-4 7.91 µM | UACC-62 9.14 µM | CAKI-1 4.91 µM

Cc1c(CCl)c(=O)oc2c(C)c3occ(CCl)c(=O)c3cc12
inactive: KM12 > 100 µM | LOX IMVI 14.9 µM | SK-MEL-2 > 100 µM | IGROV-1 20.3 µM | SK-OV-3 > 100 µM | SN12C 23.4 µM | OVCAR-3 > 100 µM | SF-539 21 µM | NCI-H226 23.9 µM | EKVX > 100 µM | UACC-62 16.3 µM

O=C1CC23CC(=O)CC2(C1)c1ccccc1C3=O (stereo not given)
inactive: KM12 > 100 µM | HCT-116 > 100 µM | LOX IMVI > 100 µM | SK-MEL-2 > 100 µM | IGROV-1 > 100 µM | SK-OV-3 > 100 µM | SN12C > 100 µM | OVCAR-3 > 100 µM | SF-539 > 100 µM | NCI-H226 > 100 µM | EKVX > 100 µM | UACC-62 > 100 µM | CAKI-1 > 100 µM

O=C(NCCCN1CCN(CCCNC(=O)c2cccc3ccccc23)CC1)c1cccc2ccccc12
inactive: KM12 > 100 µM | HCT-116 39.1 µM | LOX IMVI > 100 µM | SK-MEL-2 > 100 µM | IGROV-1 78.3 µM | SK-OV-3 23 µM | SN12C > 100 µM | OVCAR-3 79.3 µM | SF-539 54.7 µM | NCI-H226 > 100 µM | EKVX > 100 µM | OVCAR-4 > 100 µM | UACC-62 > 100 µM | CAKI-1 51.3 µM

CC#Cc1c(C#CC)c(OC)c2c(c1OC)C(=O)c1ccccc1C2=O
inactive: KM12 > 100 µM | HCT-116 15.9 µM | LOX IMVI > 100 µM | SR 46.6 µM | SK-MEL-2 38.5 µM | IGROV-1 73.6 µM | SK-OV-3 34.9 µM | SN12C > 100 µM | OVCAR-3 > 100 µM | EKVX 45.7 µM | OVCAR-4 > 100 µM | UACC-62 23.9 µM | CAKI-1 47.9 µM

COC(=O)C(C(=O)C(=O)Nc1c(Cl)cc([N+](=O)[O-])cc1Cl)c1nc2cc(C)c(C)cc2nc1O (stereo not given)
inactive: KM12 > 100 µM | HCT-116 > 100 µM | LOX IMVI > 100 µM | SK-MEL-2 > 100 µM | IGROV-1 > 100 µM | SK-OV-3 > 100 µM | SN12C > 100 µM | OVCAR-3 > 100 µM | SF-539 > 100 µM | NCI-H226 > 100 µM | EKVX 38.9 µM | OVCAR-4 > 100 µM | UACC-62 59.2 µM | CAKI-1 > 100 µM

CNS(=O)(=O)NNS(=O)(=O)c1ccc(Cl)cc1
inactive: KM12 > 100 µM | HCT-116 > 100 µM | SR > 100 µM | SK-MEL-2 > 100 µM | IGROV-1 > 100 µM | SK-OV-3 > 100 µM | SN12C > 100 µM | OVCAR-3 > 100 µM | SF-539 > 100 µM | EKVX > 100 µM | OVCAR-4 > 100 µM | UACC-62 > 100 µM | CAKI-1 > 100 µM
